pEC50, pIC50: −log10 of the molar value. Activity calls are given as the source filed them.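 Rule for the calls: active = compounds giving half or more protection of infected cells from virus-caused growth loss, again on retest; inactive = the rest.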
Test system: CEM cells HIV-1 protection, formazan growth assay
Experiment: NCI AIDS Antiviral Assay
Details: for pIC50: measured here: growth of uninfected CEM cells
Experimental: The ability of compounds to protect human CEM cells from HIV-1 infection is measured as a screen for new compounds capable of inhibiting the HIV virus. Five concentrations of drug were tested on uninfected and infected cells and cell growth was measured using a soluble formazan assay. […] Compounds that provided at least 50% protection were retested. Compounds that provided at least 50% protection on retest were listed as moderately active. Compounds that reproducibly provided 100% protection were listed as confirmed active. […] Note that the inability to provide protection could be due to toxicity.

Row | Structure (SMILES) | pEC50 | pIC50 | outcome
1 | Cc1ccc(S(=O)(=O)N2CC3(CN(S(=O)(=O)c4ccc(C)cc4)CC4(C2)OCCO4)OCCO3)cc1 | < 3.70 | 4.07 | –
2 | CC(=O)OCC1OC(SC2=N/C(=C\c3cc4c(=O)c5ccccc5sc4s3)C(=O)N2c2ccccc2)C(OC(C)=O)C(OC(C)=O)C1OC(C)=O (stereo not given) | < 3.70 | 3.94 | –
3 | Nn1c(-c2cccc(Cl)c2)nc2ccccc2c1=O | – | – | inactive
4 | Cc1cc2c(=O)c3ccccc3[nH]c2c(C(N)=O)c1C | – | – | inactive
5 | O=C1OC(Cl)(C(Cl)(Cl)Cl)C(=O)OC1(Cl)C(Cl)(Cl)Cl (stereo not given) | < 3.70 | < 3.70 | –
6 | O=S(=O)(Nc1nnc2c3ccccc3cnn12)c1ccc(Cl)cc1S | 4.44 | 3.31 | –
7 | CCOC(=O)C1(Br)C(c2ccccc2)NC(=O)N(C2OC(COC(=O)c3ccccc3)C(OC(=O)c3ccccc3)C2OC(=O)c2ccccc2)C1(C)Br (stereo not given) | < 4.80 | < 4.80 | –
8 | Cc1ccc(OCC2OC(n3cnc4c(Br)nc(Br)nc43)CC2Oc2ccc(C)cc2)cc1 (stereo not given) | < 3.70 | 5.68 | –
9 | COc1ccc(C2S/C(=C\c3cccc(OC)c3)C(=O)N2NC(=O)Cc2ccccc2)cc1 (stereo not given) | < 3.97 | < 3.97 | –
10 | CN(C)CCNC(=O)c1noc2c1CSc1ccccc1-2 | < 3.39 | 4.55 | –
11 | CNC(=O)[C@@H](C)C1C(=O)/C(=C(O)\C=C\C(C)C)C(=O)N1C1CCC(O)C(C)O1 (stereo not given in full) | – | – | inactive
12 | COc1c(OC2OC(CO)C(O)C(O)C2O)cc2occ(-c3ccc4c(c3)OCO4)c(=O)c2c1O (stereo not given) | < 3.70 | < 3.70 | –
13 | NC1=NS(=O)(=O)Nc2nc(-c3ccc(Cl)cc3)c(-c3ccc(Cl)cc3)nc21 | < 4.21 | < 4.21 | –
14 | CN(C)C1C(=O)C(C(=O)NCNC(CO)(CO)CO)=C(O)C2(O)C(=O)C3=C(O)c4c(O)cccc4C(C)(O)C3CC12 (stereo not given) | < 3.70 | 3.88 | –
15 | O=C1CC(c2ccco2)NC(=O)N1CCCl (stereo not given) | < 3.70 | < 3.70 | –
16 | CC(C)(C)OC(=O)N1Cc2cc(O)ccc2C[C@H]1C(=O)O | < 3.70 | < 3.70 | –
17 | COP1(=O)OC(C)=C(C)c2cccn21 (stereo not given) | < 4.22 | < 4.22 | –
18 | CCN1CCC(O)(c2ccc(Oc3ccc(Cl)cc3)cc2)C(C(=O)c2ccc(Oc3ccc(Cl)cc3)cc2)C1 (stereo not given) | < 3.70 | 5.12 | –
19 | C1CCSCCCCSCCCCSCCCCSC1 | < 3.99 | < 3.99 | –
20 | Oc1cc(Br)cc2cccnc12 | – | – | inactive
21 | Oc1ccc(C2SCc3nc4ccccc4n32)cc1 (stereo not given) | < 4.57 | < 4.57 | –
22 | O=S(=O)(/C=C/c1ccc(F)cc1)Cc1ccc(CS(=O)(=O)/C=C/c2ccc(F)cc2)cc1 | < 4.56 | < 4.56 | –
23 | CN1C(=O)C(O)(c2c3c(c(C4(O)C(=O)N(C)c5ccccc54)c4c2OCO4)OCO3)c2ccccc21 (stereo not given) | < 3.70 | < 3.70 | –
24 | CCOC(=O)C1(Cc2ccc(C)cc2)Cc2ccc(C)cc2C1=O (stereo not given) | < 3.70 | 5.33 | –
25 | Nc1cc(N2CCCC2)nc(=O)n1Cc1ccccc1 | – | – | inactive
26 | Cc1cn(CC2=NCC(C)(C)CN2)c(=O)[nH]c1=O | < 3.70 | < 3.70 | –
27 | CC(=O)N=C1N(/C=C2\C(=O)Oc3ccccc3C2=O)C(=O)/C(=C/c2ccc(OC(C)=O)cc2)N1C | < 3.70 | 3.97 | –

Row | Structure (SMILES) | pEC50 | pIC50 | outcome
28 | C=CN(C=C)C(=O)Cn1cc(-c2ccccc2)nn1 | < 3.70 | < 3.70 | –
29 | CC(CC(=O)c1ccccc1)C(Sc1ccccc1)(Sc1ccccc1)Sc1ccccc1 (stereo not given) | < 3.70 | < 4.00 | –
30 | COc1ccc(-n2nc(C)cc(N)c2=O)cc1 | < 2.97 | < 2.97 | –
31 | O=C(c1ccccc1)c1cc(Cl)ccc1NCn1nnc2ccccc21 | < 3.70 | 4.45 | –
32 | O=[N+]([O-])c1ccc(Cl)c(C2SCc3nc4ccccc4n32)c1 (stereo not given) | < 4.40 | 4.48 | –
33 | COc1ccc(S(=O)(=O)N/N=C(\C)CN2C(=O)c3ccccc3C2=O)cc1OC | < 3.36 | < 3.36 | –
34 | NC(=O)/C(=N\NC(=O)C[n+]1ccccc1)C1NC(=O)NC1=O (stereo not given) | < 3.83 | < 3.83 | –
35 | N=C1C(=N)c2ccccc2-c2ccccc21.N=C1C(=N)c2ccccc2-c2ccccc21.[Cl-].[Rh+3].c1ccc(-c2ccccn2)nc1 | – | – | inactive
36 | Cc1ccc(S(=O)(=O)c2c(O)c3ccccc3n(C)c2=O)cc1 | < 3.70 | < 3.70 | –
37 | [Zn+2].c1ccc(-c2c3nc(c(-c4ccccc4)c4[n-]c(c(-c5ccccc5)c5nc(c(-c6ccccc6)c6[n-]c2c2ccccc62)-c2ccccc2-5)c2ccccc42)-c2ccccc2-3)cc1 | < 4.30 | < 4.30 | –
38 | COC(=O)[C@H](Cc1ccccc1)NC(=O)N(CCNC(=O)OC(C)(C)C)c1ccccc1 | < 3.70 | 3.99 | –
39 | O=S(=O)(O)c1cc(N=Nc2cc(S(=O)(=O)O)c3cccnc3c2O)ccc1C(O)C(O)c1ccc(N=Nc2cc(S(=O)(=O)O)c3cccnc3c2O)cc1S(=O)(=O)O (stereo not given) | 4.95 | < 3.70 | –
40 | CC(C)C(=O)CC(Sc1ccc(N)cc1)c1ccccc1 (stereo not given) | < 3.70 | 4.06 | –
41 | Nc1ncnc2c1ncn2C1CCC(=O)C1 (stereo not given) | < 2.94 | 3.76 | –
42 | C/C(=N\N)C(CN1CCCCC1)C(c1ccccc1)c1c(O)c2ccccc2oc1=O (stereo not given) | < 3.97 | 4.16 | –
43 | CC(=O)CC(N)=O | – | – | inactive
44 | CC(=O)Nc1ccc(N2C(=O)/C(=C\c3cccc(Oc4ccccc4)c3)S(=O)(=O)C2c2ccccc2)cc1 (stereo not given) | < 3.70 | 4.57 | –
45 | CN(C)c1ccc(/C(=N\N)c2ccccc2)cc1 | < 3.70 | 3.95 | –
46 | O=C(c1ccccc1)c1cc(N=Nc2ccc(/C=C/c3ccc(N=Nc4cc(C(=O)c5ccccc5)c5cccnc5c4O)cc3S(=O)(=O)O)c(S(=O)(=O)O)c2)c(O)c2ncccc12 | < 4.41 | < 4.41 | –
47 | Cc1ccc(S(=O)(=O)/C(C#N)=C\N2CCNC2=S)cc1 | < 3.70 | < 3.70 | –
48 | O=C1C[C@H](c2ccc(O)c(O)c2)Oc2cc(O)cc(O)c21 | < 3.20 | 4.01 | –
49 | O=C1N(CCO)C2=CCCCC23c2[nH]c4ccccc4c2CCN13 (stereo not given) | < 3.70 | < 4.00 | –
50 | COC(=O)C[P+](c1ccccc1)(c1ccccc1)c1ccccc1 | < 3.70 | < 3.70 | –
51 | CC(/C=N/NC1=NCCCCN1)=N\NC1=NCCCCN1 | < 3.70 | 3.92 | –
52 | Cc1cc(N(CCC#N)S(=O)(=O)c2ccccc2)ccc1C=Nc1cccc(C(=O)O)c1 | < 3.82 | < 3.82 | –
53 | COc1cc(C)c2c(c1C)OC(=O)c1c(C)c(Cl)c(O)c(C=O)c1O2 | < 4.31 | < 4.31 | –
54 | Cc1cc(O)c2c(c1)C([C@]13Cc4cc(O)c5c(c4[C@H]1C=C[C@@H](O)C3O)C(=O)c1c(O)ccc(O)c1C5=O)OC2=O (stereo not given in full) | < 5.18 | < 5.18 | –

Row | Structure (SMILES) | pEC50 | pIC50 | outcome
55 | CN(C)CCCNC(=O)c1nc(NC(=O)c2nc(NC(=O)c3nc(NC(=O)/C=C/C(=O)Nc4cn(C)c(C(=O)Nc5cn(C)c(C(=O)Nc6cn(C)c(C(=O)NCCCN(C)C)n6)n5)n4)cn3C)cn2C)cn1C | < 4.30 | < 4.30 | –
56 | CC1CCC2(CC1)NN=c1s/c(=C\c3ccc(O)cc3)c(=O)n1N2 (stereo not given) | – | – | inactive
57 | CON(C)c1nc(Cl)nc(N(C)OC)n1 | < 3.70 | < 3.70 | –
58 | CC(C)=CCC/C(C)=C/CCC1(C)C=Cc2c(c3ccccc3oc2=O)O1 (stereo not given) | – | – | inactive
59 | Cc1ccc2[c](c1)[Sn]([c]1ccccc1)([c]1ccccc1)[c]1cc(C)ccc1N2C | < 4.58 | 4.99 | –
60 | CSC1=Nc2cccnc2Nc2cscc21 | < 3.70 | 5.90 | –
61 | Cc1c(C)c2c(c3c1OC(C)(C)CC3)CCC(C)(C)O2 | < 3.87 | 4.13 | –
62 | O=C(Nc1ccc(Cl)cc1)Nc1ccc(Cl)c(Cl)c1 | < 3.70 | 5.53 | –
63 | C=CC(C)(C)n1cc(C2=C(O)C(=O)C(c3c(CC=C(C)C)[nH]c4ccccc34)=C(O)C2=O)c2ccccc21 | < 3.70 | 5.59 | –
64 | CC1(C)OC2C(CF)OC(n3cc(Br)c(=O)[nH]c3=O)C2O1 (stereo not given) | < 3.70 | < 3.70 | –
65 | COC(=O)C1C(C(=O)OC)C2(OC)c3ccccc3-c3ccccc3C12 (stereo not given) | < 3.70 | 4.67 | –
66 | CN(CCn1cnc2c1c(=O)n(C)c(=O)n2C)C1CCCCC1 | < 3.70 | < 3.70 | –
67 | CCOc1ccc(NC(=O)/C(=N\N)C(C(=O)OC)c2nc3ccc(Cl)cc3[nH]c2=O)cc1 (stereo not given) | < 4.41 | < 4.41 | –
68 | CC1=C(C(=O)N(C(C)C)C(C)C)CC(C(=O)N(C(C)C)C(C)C)=C(C)N1 | < 3.70 | 3.92 | –
69 | COCC1C(=O)c2cc3c(cc2C12C=CC1(C=C2)OCCO1)OCO3 (stereo not given) | < 3.56 | 4.96 | –
70 | O=C1/C(=N\O)C(c2ccccc2)Oc2ccccc21 (stereo not given) | 4.68 | 4.42 | –
71 | CCOC(=O)c1sc2c(c1OC(=O)c1ccc(OC)cc1)c(=O)n(-c1ccccc1)c(=S)n2-c1ccccc1 | < 3.70 | 4.41 | –
72 | CC1CC2Oc3ccc(Cl)cc3C(=O)N2O1 (stereo not given) | < 3.70 | < 3.70 | –
73 | CC1CCCN2C(=O)CN(c3ccccc3)CC(=O)N12 (stereo not given) | < 3.70 | < 3.70 | –
74 | O=C(Cc1ccccc1)NNc1nc(NNC(=O)c2ccncc2)nc(Nc2ccccc2)n1 | < 3.70 | < 3.70 | –
75 | O=C(Nc1ccc(C2=NCCN2)cc1)C1CCC(C(=O)Nc2ccc(C3=NCCN3)cc2)CC1 (stereo not given) | < 3.70 | 4.96 | –
76 | C=C(c1cc(C(=O)OC)c(OC)c(Br)c1C)c1cc(C(=O)OC)c(OC)c(Br)c1C | < 3.70 | 4.11 | –
77 | O=C(Nc1ccc([N+](=O)[O-])cn1)Nc1cc([N+](=O)[O-])ccc1F | < 3.70 | 4.76 | –
78 | CCN(CC)C(=O)C(C)n1cc(C)c(=O)[nH]c1=O (stereo not given) | < 3.01 | < 3.01 | –
79 | Cc1cn(C2CC(O)C(COC(=O)CCCCCCCCCCCN=[N+]=[N-])O2)c(=O)[nH]c1=O (stereo not given) | 5.00 | 4.67 | –
80 | N#Cc1c2c(c(-c3cccs3)n(C3OC(CO)C(O)C(O)C3O)c1=S)CCc1ccccc1-2 (stereo not given) | – | – | inactive
